Columns and labels:
[1] = test system: GATA1; assay: GATA knock-down (siRNA), inducible RCT gene expression; type: cell-based, human; conditions: normal vs GATA-knockdown (siRNA) HepG2 cells; FIG. 2
Protocol: GATA knock-down: HepG2 cells were grown in T-75 flasks prior to study. Transfection of GATA1 specific siRNA in 24-well plates was performed according to the manufacturer's instructions. After 48 hours, RNA was isolated and RT-PCR was performed to examine changes in GATA1 and RCT message levels all normalized to actin. In some experiments, after 48 hours post transfection, media was removed and normal growth media+one of Compounds A-E or DMSO control was added to the wells. RNA isolation and RT-PCR was then performed as stated above.
To determine the role of GATA on inducible RCT gene expression, molecular approaches were used to reduce GATA expression. GATA expression was reduced by siRNA gene silencing. In this test, a candidate compound (Compound A), known for its ability to function as a GATA inducer, was added to both normal and GATA-knockdown cells as described above.

[2] = test system: cholesterol fed rat; assay: HDL in cholesterol fed rat model; type: in vivo; conditions: FIG. 5
Protocol: Lipid Measurements: Lipid levels were measured at the end of the studies using commercially available kits.
Atherosclerosis is associated with dyslipidemia (increased LDL and low HDL).

[3] = test system: RCT gene (apolipoprotein E, SRB1 and LCAT); assay: RCT gene expression in pancreatic beta cells; type: cell-based; conditions: 25 uM, FIG. 7
Protocol: Pancreatic beta cells were incubated with compound A (25 uM). Following treatment total RNA was isolated and RCT gene (apolipoprotein E, SRB1 and LCAT) expression was determined.

[4] = test system: Pancreatic beta cells; assay: Glucose stimulated insulin secretion in pancreatic beta cells; type: cell-based; conditions: 25 uM, FIG. 8
Protocol: Pancreatic beta cells were incubated with compound A (25 uM). Following treatment glucose stimulated insulin secretion was determined.

[5] = test system: Ob/ob mice; assay: Plasma glucose in ob/ob mice (insulin resistance and diabetes model); type: in vivo; conditions: 2 and 4 weeks of treatment, FIG. 9
Protocol: Glucose Measurements: Glucose levels were measured at the end of the studies using commercially available kits. Ob/ob mice were treated with control vehicle or vehicle containing Compound A (GATA activator) or vehicle containing pioglitazone (a known antidiabetic drug).

[6] = test system: ApoE −/− mice; assay: Lipid content of aortas in ApoE −/− fat fed mice; type: in vivo; conditions: oral 50 mg/kg/day for 7 days, oil-red O staining, FIG. 6
Protocol: Lipid Content: 8 week old ApoE −/− mice were fed a high fat diet for 2 months and then placed on normal chow. The mice were then orally dosed for 7 days with either CMC-tween (control) or Compound C at 50 mg/kg/day. At the end of the study, the aorta was dissected out, fixed in the O.C.T., sections were prepared, stained with oil-red O, and mounted under cover slips. The oil-red O staining was analyzed using quantitation software and reported as lipid content per lesion area.
Atherosclerosis is also associated with high levels of lipid content in aortas. Compound C was administered to mice according to the method described above and according to conventional animal testing protocol. The lipid content of the aortas was measured.

[7] = test system: GATA; assay: GATA luciferase reporter assay (GATA activity); type: cell-based, human; conditions: HepG2 cells transfected with GATA luciferase construct, treated overnight; FIG. 3
Protocol: GATA activity: HepG2 cells were grown in T-75 flasks prior to study. 24-well plates were seeded in normal medium without antibiotics to yield ˜50% confluency. The following day, cells were transfected according to the manufacturer's protocol and allowed to incubate overnight. The next day, the media was replaced and cells were treated with vehicle (DMSO) or one of Compounds A-E overnight. Cells were lysed by adding lysis buffer and assayed for luciferase activity.
An in vitro high-throughput assay based on luciferase activity to screen for and identify agents that upregulate GATA activity was developed. HepG2 cells were grown in T-75 flasks prior to study. 24-well plates were seeded in normal medium without antibiotics to yield ˜50% confluency. The following day, cells were transfected (Roche, FuGENE 6 transfection reagent, cat#11815091001) with a GATA luciferase construct (Panomics, cat#LR0027) according to the manufacturer's protocol and allowed to incubate overnight. The next day, the media was replaced and cells were treated with vehicle (DMSO) or GATA inducer candidate compounds (Compounds A-E) overnight. Cells were lysed by adding lysis buffer (Promega, cat#E1500) and assayed for luciferase activity (Perkin Elmer Envision 2101 Multi-Label Reader).

[8] = test system: RCT genes; assay: Real time quantitative PCR screen for RCT gene induction; type: cell-based, human; conditions: cells treated, total RNA, FIG. 4
Protocol: PT-PCR Screen: Human liver cells (HepG2) were grown in T-75 flasks prior to study. 96-well plates were seeded, and the following day, cells were washed with PBS and treated with serum free media for 24 hours. The next day, cells were treated with vehicle (DMSO) or with one of Compounds A-E overnight. RNA was isolated and RT-PCR was performed to examine changes in RCT gene message levels normalized to actin.
An in vitro high-throughput assay based on real time quantitative PCR was developed to screen for and identify agents that simultaneously upregulate RCT genes. Cells were treated with pharmaceutical agents, some of which are GATA inducers as described above. Total RNA was isolated and used in the real time assay.

CC(=O)c1ccc(Nc2nc(-c3ccccc3)cc(N3CCC(O)CC3)n2)cc1 [Compound A]
ability to induce RCT gene expression after GATA knock-down [1]: blunting of Compound A's ability to induce RCT gene expression | HDL [2]: significantly increased HDL | expression of RCT genes (apolipoprotein E, SRB1 and LCAT) [3]: increased expression of RCT genes | glucose stimulated insulin secretion [4]: increased secretion of insulin | plasma glucose [5]: significantly lower levels of plasma glucose

CS(=O)(=O)c1ccc(Nc2nc(-c3ccccc3)cc(N3CCC(O)CC3)n2)cc1 [Compound C]
lipid content in aortas [6]: significantly lowered lipid content

CCN1CCCC1CNc1nc(Nc2ccc(OC)c(F)c2)nc(N2CCN(CC(=O)N3CCCC3)CC2)n1 (stereo not shown) [D]
GATA activity (luciferase activity) [7]: not shown to induce GATA activity | RCT gene expression [8]: did not induce RCT gene induction

COc1ccc(Nc2nc(NC3CCCCCC3)nc(N(C)C3CCN(C)CC3)n2)cc1F [E]
GATA activity (luciferase activity) [7]: not shown to induce GATA activity | RCT gene expression [8]: did not induce RCT gene induction
